Holding throughout (experiment): inhibition of tumour cell growth, NCI panel, 48 h
For experiment [1], the system named is TK-10 renal.
Experiment [2] has as its system HOP-62 NSCLC.
In experiment [3] the test system is IGROV1 ovarian.
Experiment [4] concerns OVCAR-4 ovarian.
Experiment [5] deals with DU-145 prostate.
Experiment [6] concerns NCI-H23 lung.
Experiment [7] deals with OVCAR-3 ovarian.
Experiment [8] relates to HCT-116 colon.
Experiment [9] relates to MDA-MB-435.
For experiment [10], the system named is SK-OV-3 ovarian.
Experiment [11] concerns UACC-62 melanoma.
Experiment [12] deals with NCI-H226 lung.
In experiment [13] the test system is HL-60(TB) leukemia.

Values joined by “and” are separate entries in the source; they are usually repeats but may differ in a detail not shown here. Equal entries are not always repeated.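 Exposure lasted 48 hours, with cells grown in 96-well plates and compounds tested at five concentrations. GI50: concentration for 50% inhibition of growth. TGI marks complete inhibition of growth.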

With `CCOC(=O)CCN1C(=O)c2ccc(NC(=O)C(=O)O)cc2S1(=O)=O`, the TGI in experiment [1], in experiment [2], in [3], in [4], in experiment [5] and in experiment [6] was > 100 µM in each case. Moreover, the TGI in experiment [7], in experiment [8], in experiment [9], in experiment [10], in [11] and in experiment [12] was > 100 µM each time. Besides, the TGI in [13] is > 100 µM.

For `CC(C)/C(Cl)=N/OC(NC(=O)Nc1ccc(Cl)c(Cl)c1)(C(F)(F)F)C(F)(F)F`, the TGI in experiment [1] worked out at 31.2 µM; in experiment [2], 42.5 µM; in experiment [3], 35.2 µM; in [4], 25.8 µM; in [5] it was 31.9 µM; in [6], 38.2 µM. Further, the TGI in experiment [7] came to 11.3 µM; in [8] it was 19.7 µM; in experiment [9], 33.8 µM; in [10], 32.3 µM; in [11], 37.2 µM; in experiment [12] it was 42.8 µM. Moreover, in experiment [13], the TGI came out at 6.39 µM.

In the case of `CCC(C)C1=C(O)[N+]2([O-])Oc3ccc(-c4c(O)c(O)c(-c5ccc(O)cc5)c(OC(C)=O)c4OC(C)=O)cc3OC2(C(C)CC)C(=O)N1O` (centres undefined), the TGI in experiment [1], in [3], in experiment [4], in [5], in experiment [6] and in experiment [7] was > 50 µM each time. In addition, the TGI in experiment [8], in experiment [9], in experiment [10], in experiment [11], in experiment [12] and in experiment [13] was > 50 µM in each case.

For the molecule `COc1ccc2c(c1)nc1n2C(c2c(F)cccc2F)SC1` (centres undefined), the TGI in experiment [1], in experiment [2], in experiment [3], in experiment [4], in experiment [5] and in experiment [6] was > 100 µM throughout. The TGI in experiment [7], in experiment [8], in [9], in [10], in experiment [11] and in experiment [12] was > 100 µM in each case. For the same molecule, in experiment [13], the TGI is > 100 µM.

Consider `O=S(=O)(O)c1ccc(N=Nc2c(O)ccc3ccccc23)cc1`, for which the TGI in experiment [1], in experiment [2], in experiment [3], in [4], in experiment [5] and in experiment [6] was > 100 µM each time. The TGI in experiment [7], in experiment [8], in [9], in experiment [10], in experiment [11] and in experiment [12] was > 100 µM in each case. The TGI in experiment [13] is > 100 µM.

On to `CC[C@@]1(O)C(=O)OCc2c1cc1n(c2=O)Cc2c-1nc1ccccc1c2C=Nc1ccc(N[C@@H]2c3cc4c(cc3[C@@H](c3cc(OC)c(O)c(OC)c3)[C@H]3C(=O)OC[C@@H]32)OCO4)cc1`, for which the GI50 in [1] was 2.16 µM and 0.815 µM; in experiment [3], 0.274 µM and 0.132 µM; in [7] it was 0.557 µM and 0.185 µM; in experiment [8], 0.0251 µM; in experiment [9], 0.295 µM and 0.188 µM; in experiment [10], 0.668 µM and 0.141 µM. The GI50 in experiment [12] is 0.0483 µM and 0.0179 µM. For the same molecule, the TGI in experiment [1] is 28.5 µM and 3.33 µM; in experiment [4] it was > 56 µM; in experiment [5] it was 0.18 µM and 0.028 µM; in experiment [6], 0.133 µM; in experiment [7] it was 6.01 µM and 0.74 µM; in [8], 6.45 µM and 0.653 µM. Besides, the TGI in [9] is 12.5 µM and > 100 µM; in experiment [10], 9.93 µM; in experiment [12] it was 2.71 µM and 0.308 µM; in experiment [13] it was > 100 µM.

Take `COc1ccccc1-c1n[nH]c(-c2ccccc2O)n1`: the TGI in experiment [1], in experiment [2], in [4], in [5], in experiment [6] and in [7] was > 100 µM in each case. For the same molecule, the TGI in experiment [8], in [9], in experiment [10], in experiment [11], in [12] and in experiment [13] was > 100 µM each time.

As for `CC1=NN(c2cccc(Cl)c2)C(=N/c2nc3ccccc3s2)/C1=C\c1ccccc1O`, the TGI is > 100 µM in experiment [1]; > 100 µM in [2]; > 100 µM in [3]; > 100 µM in experiment [4]; > 100 µM in [5]; 70.1 µM in experiment [6]. The TGI is 60.4 µM in experiment [7]; 68 µM in experiment [8]; > 100 µM in experiment [9]; 81.1 µM in experiment [10]; 87.8 µM in [12]; 80.6 µM in experiment [13].

With `CCCCC1=C(C(=O)N2CCOCC2)C2(OCCO2)C1Cl` (centres undefined), the TGI in experiment [1], in experiment [2], in experiment [3], in experiment [4], in experiment [5] and in experiment [6] was > 100 µM each time. Further, the TGI in [8] was > 100 µM; in experiment [9], 67.8 µM; in [10] it was > 100 µM; in [11], > 100 µM; in [12], > 100 µM; in [13], > 100 µM.

Regarding `Nc1ccc2c(c1)N(C(=O)CCCC(=O)N1CC(CCl)c3ccc(N)cc31)CC2CCl` (centres undefined), the TGI is > 48.1 µM in experiment [1]; 8.94 µM in [2]; > 11.3 µM in [3]; > 11.1 µM in [4]; > 21 µM in experiment [5]; 4.16 µM in [6]. Further, the TGI was > 50 µM in experiment [7]; > 50 µM in experiment [8]; 3.17 µM in experiment [9]; 48.6 µM in experiment [10]; > 50 µM in [12]; 0.907 µM in [13].

For the origin of these results see PubChem BioAssay (NCI).
